Measured values: paper PMC8694143 (Microbiology Spectrum, 2021)
Residues, ends and D or L forms follow the SMILES beside them. No end group written: not given here. *: point of attachment. For = O=C*

Tests used:
SspA protease = SspA protease (Staphylococcus aureus, UniProt P0C1U8); experiment: SspA protease treatment with HPLC/MS analysis; type: in vitro ADME; conditions: peptide 45 μL at 10 mg/mL + SspA 5 μL at 2 mg/mL, 100 mM HEPES pH 7.8, 37°C, 5 h
Description: SspA protease was resuspended at 2 mg/mL in 100 mM HEPES (pH 7.8). Peptide samples (45 μL at 10 mg/mL) were mixed with SspA (5 μL at 2 mg/mL) and incubated at 37°C for a total of 5 h. The antimicrobial activities of the reaction mixtures were assayed by spotting 5 μL (∼45 μg) of each on either M. luteus or S. aureus test organisms as described above. Additional samples were flash frozen in liquid nitrogen and stored at −80°C prior to high-pressure liquid chromatography-mass spectrometry (HPLC/MS) analysis.
HPLC/MS analyses were conducted to assess the proteolytic cleavage of STIPs by the SspA protease and catalogue peptides in the reaction mixtures. An Agilent Infinity II 1260 HPLC outfitted with a Phenomenex Lune C5 column (4.6 by 150 mm, 5 μm) was used to separate the peptide fragments using a binary solvent system consisting of solvent A (water, 0.05% formic acid) and solvent B (acetonitrile, 0.05% formic acid) operating at 0.7 mL/min. A 5-μL volume (∼4.5 μg) of each sample was injected at 10% solvent B, followed by a two-step gradient elution from 10% to 50% solvent B in 30 min, then 50% to 100% B in 10 min. The HPLC was coupled to an Advion CMS(L) single quadrupole mass detector through an electrospray ionization source, and ions were detected between 100 and 2,000 m/z. Low temperature and fragmentation settings were used: capillary temperature 135°C, capillary voltage 120 V, source voltage offset 20 V, source gas temperature 135°C, and electrospray ionization (ESI) voltage 3,500 V.

MRSA ATCC 33592 = experiment: MIC determination in broth; type: cell-based, Staphylococcus aureus; conditions: cation-adjusted MH broth, 37°C, 16 h
In short: (§1)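 MIC read after unshaken incubation at 37°C of bacteria (∼10^5 CFU/mL, OD 5 × 10^−4) with twofold peptide dilutions in cation-adjusted MH broth.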

MRSA ATCC BAA-41 = experiment: MIC determination in broth; type: cell-based, Staphylococcus aureus; conditions: cation-adjusted MH broth, 37°C, 16 h
In short: as §1

S. aureus ATCC 29213 = experiment: MIC determination in broth; type: cell-based, Staphylococcus aureus; conditions: cation-adjusted MH broth, 37°C, 16 h
In short: as §1

MRSA ATCC BAA-2094 = experiment: MIC determination in broth; type: cell-based, Staphylococcus aureus; conditions: cation-adjusted MH broth, 37°C, 16 h
In short: as §1

MRSA ATCC BAA-1683 = experiment: MIC determination in broth; type: cell-based, Staphylococcus aureus; conditions: cation-adjusted MH broth, 37°C, 16 h
In short: as §1

MRSA ATCC BAA-2313 = experiment: MIC determination in broth; type: cell-based, Staphylococcus aureus; conditions: cation-adjusted MH broth, 37°C, 16 h
In short: as §1

MRSA ATCC BAA-42 = experiment: MIC determination in broth; type: cell-based, Staphylococcus aureus; conditions: cation-adjusted MH broth, 37°C, 16 h
In short: as §1

MRSA ATCC BAA-44 = experiment: MIC determination in broth; type: cell-based, Staphylococcus aureus; conditions: cation-adjusted MH broth, 37°C, 16 h
In short: as §1

[1] = Circular dichroism spectroscopy; type: physicochemical; conditions: for α-Helical content (%): CD, 50% TFE (vol/vol), peptide 0.2 mg/mL, room temperature
Description: Peptides were dissolved in ultrapure water or 50% TFE (vol/vol) at a concentration of 0.2 mg/mL for spectroscopy. Spectra of samples in a 1 mm pathlength quartz cuvette were recorded from 180 to 260 nm at 0.5 nm steps using an Applied Photophysics Chirascan Plus CD spectrophotometer operating at room temperature.

sheep red blood cells = experiment: Hemolytic activity assay; type: cell-based; conditions: peptides at 100 μg/mL, 1 h, relative to the δ-toxin and other STIPs
Description: Thirty-five percent defibrinated sheep’s blood (vol/vol) was centrifuged for 5 min at 4,000 rpm to harvest red blood cells. The cells were washed three times with PBS and harvested by centrifugation prior to dilution to 15% (vol/vol) in PBS in order to evaluate peptide-mediated hemolysis. The assay was performed in 96-well microtiter plates using peptides at 100 μg/mL in a 200-μL volume. […] was used as a negative control and Triton X-100 (0.1% vol/vol) was used as a positive control for complete lysis. After 1 h of incubation, the 96-well microtiter plates were centrifuged at 4,500 rpm for 10 min and a 150 μL aliquot of the supernatant from each sample was carefully transferred to a new 96-well plate. The absorbance of the supernatant was then measured at 540 nm using a Varioskan Lux plate reader (Thermo Scientific). The hemolytic activity is reported relative to complete lysis (%) obtained using Triton X-100. Experiments were performed in triplicate, and statistical differences in hemolysis were measured using an unpaired two-tailed Student’s t test to compare the STIPs and deformylated δ-toxin to the formylated δ-toxin.

HeLa (ATCC CCL-2) cells = experiment: HeLa cytotoxicity, alamarBlue; type: cell-based, human; conditions: monolayers, 3.13 to 200 μg/mL, 24 h, alamarBlue fluorescence; estimated
Description: Cytotoxicity was measured using the 3D EpiDerm skin tissues and HeLa (ATCC CCL-2) cells using a fluorescent reporter of cell viability, alamarBlue (ThermoFisher Scientific). 3D EpiDerm skin tissues (MatTek EPI-200-AFAB) were transferred to a 12-well plate containing 600 μL of AFAB-assay medium supplemented with 10% vol/vol alamarBlue. […] HeLa cells were seeded in a 96-well plate at 2 × 10^4 cells/per well and incubated overnight at 37°C in a humidified 5% CO2 environment to prepare wells at ∼50% confluence for treatments after spent Dulbecco’s modified Eagle’s medium (DMEM) was removed and cells were washed with PBS. Assays were then performed using phenol red-free DMEM supplement with 9% vol/vol alamarBlue and peptide concentrations varying from 3.13 to 200 μg/mL. After a 24 h incubation period, alamarBlue fluorescence emission was measured at 590 nm upon excitation at 560 nm using Varioskan Lux plate reader (Thermo Scientific). Fluorescence intensities of treated cultures were normalized to measurement made for untreated control samples. Experimental data sets were fit to nonlinear dose-response curves to determine IC50 values using Origin 2019.

M. luteus ATCC 4698 = experiment: MIC determination in broth; type: cell-based, Micrococcus luteus; conditions: cation-adjusted MH broth, ~10^5 CFU/mL, 30°C, 48 h
Description: M. luteus ATCC 4698, S. aureus ATCC 29213, a panel of 7 MRSA (ATCC MP-2) strains, which includes ATCC BAA-41, BAA-42, BAA-44, BAA-1683, BAA-2094, BAA-2313, and 33592, and a series of additional bacterial isolates from human and veterinary cases were used in this study (Table S6). Bacterial strains were routinely grown in lysogeny broth (LB: 10 g/L tryptone, 5 g/L yeast extract, 10 g/L NaCl) at 30°C (M. luteus) or 37°C (Staphylococcus spp.) prior to use in specific experiments described below.
The MICs were measured for bioactive peptides identified from the initial screen. Cation-adjusted Mueller-Hinton (MH) broth was used as the growth medium for MIC determination experiments. Bacterial cultures were diluted to an OD of 5 × 10^−4 (∼10^5 CFU/mL) in 200 μL MH broth mixed with peptides in a 2-fold dilution series arrayed in 96-well plates. Plates were incubated without shaking at 30 or 37°C depending on the organism.

S. aureus = experiment: MIC of STIP3-1 alanine variants in liquid broth; type: cell-based, Staphylococcus aureus; conditions: Table S4; maximum concentration tested 200 μg/mL; strain not given
Description: The MICs were measured for bioactive peptides identified from the initial screen. […] […] Plates were incubated without shaking at 30 or 37°C depending on the organism.

[2] = δ-toxins, highest conc. tested 200 μg/mL
[3] = STIP3 variants, highest conc. tested 100 μg/mL, ~10^5 CFU/mL, 2-fold dilution series

Chain of SspA protease (P0C1U8 69-336): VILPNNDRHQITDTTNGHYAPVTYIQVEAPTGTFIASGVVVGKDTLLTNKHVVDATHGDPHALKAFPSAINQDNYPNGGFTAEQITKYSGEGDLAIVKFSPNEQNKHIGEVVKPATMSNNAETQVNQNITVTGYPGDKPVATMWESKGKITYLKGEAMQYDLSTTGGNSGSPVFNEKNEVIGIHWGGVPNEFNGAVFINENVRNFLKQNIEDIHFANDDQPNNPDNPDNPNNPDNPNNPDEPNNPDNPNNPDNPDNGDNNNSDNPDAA

CC[C@H](C)[C@H](NC(=O)[C@H](Cc1c[nH]c2ccccc12)NC(=O)[C@H](CCCCN)NC(=O)[C@@H](NC(=O)[C@H](CC(C)C)NC(=O)CNC(=O)CNC(=O)[C@@H](NC(=O)[C@@H](NC(=O)[C@H](CCC(=O)O)NC(=O)[C@@H](NC(=O)[C@@H](NC(=O)[C@H](CC(=O)O)NC(=O)[C@H](CCCCN)NC(=O)[C@@H](NC(=O)[C@H](CCSC)NC=O)[C@@H](C)O)[C@@H](C)CC)C(C)C)[C@@H](C)O)C(C)C)C(C)C)C(=O)N[C@@H](CC(C)C)C(=O)N[C@@H](CC(=O)O)C(=O)N[C@H](C(=O)N[C@H](C(=O)N[C@@H](CCCCN)C(=O)N[C@@H](CCCCN)C(=O)N[C@@H](Cc1ccccc1)C(=O)N[C@@H](C)C(=O)O)C(C)C)[C@@H](C)O [δ-toxin] (For-MTKDIVETVGGLVKWILDTVKKFA-OH; C-terminus assumed)
Susceptibility to SspA cleavage (SspA protease): no SspA cleavage was observed | MIC, S. aureus ATCC 33592 (SCCmec III) (MRSA ATCC 33592; [2]): > (no inhibition was observed at 100 μg/mL for the STIP3 variants or 200 μg/mL for the δ-toxins) | MIC, S. aureus ATCC BAA 41 (SCCmec II) (MRSA ATCC BAA-41; [2]): > (no inhibition was observed at 100 μg/mL for the STIP3 variants or 200 μg/mL for the δ-toxins) | MIC, S. aureus ATCC 29213 (S. aureus ATCC 29213; [2]): > (no inhibition was observed at 100 μg/mL for the STIP3 variants or 200 μg/mL for the δ-toxins) | MIC, S. aureus ATCC BAA 2094 (SCCmec V) (MRSA ATCC BAA-2094; [2]): > (no inhibition was observed at 100 μg/mL for the STIP3 variants or 200 μg/mL for the δ-toxins) | MIC, S. aureus ATCC BAA 1683 (SCCmec IV) (MRSA ATCC BAA-1683; [2]): > (no inhibition was observed at 100 μg/mL for the STIP3 variants or 200 μg/mL for the δ-toxins) | MIC, S. aureus ATCC BAA 2313 (SCCmec XI) (MRSA ATCC BAA-2313; [2]): > (no inhibition was observed at 100 μg/mL for the STIP3 variants or 200 μg/mL for the δ-toxins) | MIC, S. aureus ATCC BAA 42 (SCCmec VI) (MRSA ATCC BAA-42; [2]): > (no inhibition was observed at 100 μg/mL for the STIP3 variants or 200 μg/mL for the δ-toxins) | MIC, S. aureus ATCC BAA 44 (SCCmec I) (MRSA ATCC BAA-44; [2]): > (no inhibition was observed at 100 μg/mL for the STIP3 variants or 200 μg/mL for the δ-toxins) | α-Helical content (%) [1]: 88% | Secondary structure by CD ([1]; water and 50% trifluoroethanol (vol/vol), 0.2 mg/mL): α-helical in both solvents

MTKDIVETVGGLVKWILDTVKKFA [δ-toxin (df), deformylated full-length S. auricularis δ-toxin, reference compound]
Susceptibility to SspA cleavage (SspA protease): susceptible to SspA cleavage | MIC, S. aureus ATCC 33592 (SCCmec III) (MRSA ATCC 33592; [2]): > (no inhibition was observed at 100 μg/mL for the STIP3 variants or 200 μg/mL for the δ-toxins) | MIC, S. aureus ATCC BAA 41 (SCCmec II) (MRSA ATCC BAA-41; [2]): > (no inhibition was observed at 100 μg/mL for the STIP3 variants or 200 μg/mL for the δ-toxins) | MIC, S. aureus ATCC 29213 (S. aureus ATCC 29213; [2]): > (no inhibition was observed at 100 μg/mL for the STIP3 variants or 200 μg/mL for the δ-toxins) | MIC, S. aureus ATCC BAA 2094 (SCCmec V) (MRSA ATCC BAA-2094; [2]): > (no inhibition was observed at 100 μg/mL for the STIP3 variants or 200 μg/mL for the δ-toxins) | MIC, S. aureus ATCC BAA 1683 (SCCmec IV) (MRSA ATCC BAA-1683; [2]): > (no inhibition was observed at 100 μg/mL for the STIP3 variants or 200 μg/mL for the δ-toxins) | MIC, S. aureus ATCC BAA 2313 (SCCmec XI) (MRSA ATCC BAA-2313; [2]): > (no inhibition was observed at 100 μg/mL for the STIP3 variants or 200 μg/mL for the δ-toxins) | MIC, S. aureus ATCC BAA 42 (SCCmec VI) (MRSA ATCC BAA-42; [2]): > (no inhibition was observed at 100 μg/mL for the STIP3 variants or 200 μg/mL for the δ-toxins) | MIC, S. aureus ATCC BAA 44 (SCCmec I) (MRSA ATCC BAA-44; [2]): > (no inhibition was observed at 100 μg/mL for the STIP3 variants or 200 μg/mL for the δ-toxins) | α-Helical content (%) [1]: 87%

TVGGLVKWILATVKKFA-NH2 [STIP3-28, rationally designed STIP3-1 variant, C-terminal amide]
MIC, S. aureus ATCC 33592 (SCCmec III) (MRSA ATCC 33592; Table S5, STIP3 variants, highest conc. tested 100 μg/mL, ~10^5 CFU/mL, 2-fold dilution series): 6.25 µg/mL | MIC, S. aureus ATCC BAA 41 (SCCmec II) (MRSA ATCC BAA-41; [3]): 12.5 µg/mL | MIC, S. aureus ATCC 29213 (S. aureus ATCC 29213; [3]): 25 µg/mL | MIC, S. aureus ATCC BAA 2094 (SCCmec V) (MRSA ATCC BAA-2094; [3]): 6.25 µg/mL | MIC, S. aureus ATCC BAA 1683 (SCCmec IV) (MRSA ATCC BAA-1683; [3]): 12.5 µg/mL | MIC, S. aureus ATCC BAA 2313 (SCCmec XI) (MRSA ATCC BAA-2313; [3]): 12.5 µg/mL | MIC, S. aureus ATCC BAA 42 (SCCmec VI) (MRSA ATCC BAA-42; [3]): 12.5 µg/mL | MIC, S. aureus ATCC BAA 44 (SCCmec I) (MRSA ATCC BAA-44; [3]): 12.5 µg/mL | Change of hemolytic activity (sheep red blood cells): increase in hemolysis

TVGGLVKWILDTVKKFA [STIP3-1]
Susceptibility to SspA cleavage (SspA protease): further proteolysis can occur | IC50, HeLa cell survival (HeLa (ATCC CCL-2) cells): 200 ± 30 µg/mL | MIC (μg/mL) for MRSA ATCC 33592 (MRSA ATCC 33592; Table 1 and text, ~10^5 CFU/mL): 100 µg/mL | MIC, M. luteus (M. luteus ATCC 4698): 12.5 µg/mL | MIC, S. aureus (alanine substituted STIP3-1, liquid broth) (S. aureus): 100 µg/mL
